In publication PMC10606833, “A Comprehensive Study on the Chemical Characterization and Neuroprotective Evaluation of Pracaxi Nuts Extracts Obtained by a Sustainable Approach” (Foods, 2023):

What was measured:
[1] = ROS scavenging capacity, oxygen radical absorbance capacity (ORAC) assay; type: biochemical; conditions: optimized PLE extracts and reference standard (Table 2)
Experimental: (§1) The ROS scavenging capacity of the PLE extracts obtained from pracaxi nuts cake was measured using the oxygen radical absorbance capacity (ORAC) assay previously described. Ascorbic acid and 10% EtOH (v/v) were used as reference standard and blank control solutions, respectively. Complementary, the RNS scavenging capacity was estimated referring to the nitric oxide (NO) radical scavenging assay. Ascorbic acid was used as the reference standard and 25% EtOH was used as blank control solution. The AChE and BChE inhibitory activities of pracaxi nuts cake PLE extracts were estimated according to the fluorescent enzyme kinetic method described by Sanchez-Martinez et al.. […] Finally, the LOX inhibitory activity of pracaxi nuts cake PLE extracts was determined as described in [26], with slight modifications.

[2] = RNS scavenging capacity, nitric oxide (NO) radical scavenging assay; type: biochemical; conditions: optimized PLE extracts and reference standard (Table 2)
Experimental: as §1

O=C1O[C@H]([C@@H](O)CO)C(O)=C1O [Ascorbic acid, ascorbic acid]
ROS (IC50) [1]: 3.2 ± 0.2 µg/mL | RNS (IC50) [2]: 1120 ± 16 µg/mL
